Test results: ChEMBL document CHEMBL4602617, “Discovery and optimization of heteroaryl piperazines as potent and selective PI3Kδ inhibitors” (Bioorg Med Chem Lett, 2020)

Legend:
[1] = target: PAS domain-containing serine/threonine-protein kinase (Homo sapiens, UniProt Q96RG2); assay: Inhibition of recombinant human GST-tagged PASK catalytic domain expressed in baculovirus expression system using serine/threonine-7 peptide as substrate incubated for 60 mins in presence of ATP by Z'-LYTE assay
Aurora kinase C = Aurora kinase C (Homo sapiens, UniProt Q9UQB9); assay: Inhibition of recombinant full length GST-tagged human AURKC expressed in baculovirus expression system using Ser/Thr-19 peptide as substrate incubated for 60 mins in presence of ATP by Z'-LYTE assay
[2] = target: BDNF/NT-3 growth factors receptor (Homo sapiens, UniProt Q16620); assay: Inhibition of recombinant human His-tagged NTRK2 cytoplasmic domain (526 to 838 residues) expressed in baculovirus expression system using tyrosine-01 peptide as substrate incubated for 60 mins in presence of ATP by Z'-LYTE assay
[3] = target: Prostaglandin E2 receptor EP1 subtype (Homo sapiens) (UniProt P34995); assay: Displacement of [3H]prostaglandin E2 from full length human recombinant EP1 receptor expressed in HEK293 cells at 10 uM measured after 60 mins by radiometric scintillation analysis relative to control; format: cell-based
[4] = target: Androgen receptor (Homo sapiens) (UniProt P10275); assay: Displacement of [3H]methyltrienolone from human LNCAP cells derived androgen receptor at 10 uM measured after 20 hrs by scintillation counting method relative to control; format: cell-based
[5] = target: Death-associated protein kinase 3 (Homo sapiens, UniProt O43293); assay: Inhibition of recombinant human full-length GST-tagged DAPK3 expressed in baculovirus expression system using FRET-labeled Ser/Thr 13 peptide as substrate measured after 1 hr in presence of ATP by Z'-lyte assay
[6] = target: Tyrosine-protein kinase ABL1 (Homo sapiens, UniProt P00519, Y253F); assay: Inhibition of recombinant full length human His-tagged ABL1 Y253F mutant cytoplasmic domain expressed in baculovirus expression system using tyrosine-2 peptide as substrate incubated for 60 mins in presence of ATP by Z'-LYTE assay
[7] = target: Vascular endothelial growth factor receptor 3 (Homo sapiens, UniProt P35916); assay: Inhibition of recombinant human GST-tagged FLT4 cytoplasmic domain expressed in baculovirus expression system after 1 using tyrosine 4 as substrate after 1 hr in presence of ATP by ZYLTE assay
[8] = target: Tyrosine-protein kinase ABL1 (Homo sapiens, UniProt P00519, G250E); assay: Inhibition of recombinant full length human His-tagged ABL1 G250E mutant cytoplasmic domain expressed in baculovirus expression system using tyrosine-2 peptide as substrate incubated for 60 mins in presence of ATP by Z'-LYTE assay
[9] = target: Serine/threonine-protein kinase Sgk2 (Homo sapiens, UniProt Q9HBY8); assay: Inhibition of recombinant human GST-tagged SGK2 catalytic domain (54 to 427 residues) expressed in baculovirus expression system using serine/threonine-6 peptide as substrate incubated for 60 mins in presence of ATP by Z'-LYTE assay
[10] = target: Protein-tyrosine kinase 6 (Homo sapiens, UniProt Q13882); assay: Inhibition of recombinant full length human His-tagged BRK expressed in baculovirus expression system using tyr01 peptide as substrate incubated for 60 mins in presence of ATP by Z'-LYTE assay
[11] = target: Calcium/calmodulin-dependent protein kinase type II subunit delta (Homo sapiens, UniProt Q13557); assay: Inhibition of recombinant full length human His-tagged CAMK2D expressed in baculovirus expression system using serine/threonine-04 peptide as substrate incubated for 60 mins in presence of ATP by Z'-LYTE assay
[12] = target: cGMP-dependent protein kinase 2 (Homo sapiens, UniProt Q13237); assay: Inhibition of recombinant full length GST-tagged human PKG2 expressed in baculovirus expression system using Ser/Thr 01 as substrate after 1 hr in presence of ATP by Z'-LYTE assay
[13] = target: Fibroblast growth factor receptor 4 (Homo sapiens, UniProt P22455); assay: Inhibition of recombinant human His-tagged FGFR4 catalytic domain ([…]) expressed in baculovirus expression system using tyrosine-4 peptide as substrate incubated for 60 mins in presence of ATP by Z'-LYTE assay
[14] = target: Histamine H1 receptor (Homo sapiens) (UniProt P35367); assay: Displacement of [3H]pyrilamine from full length human recombinant histamine H1 receptor expressed in CHO-K1 cells at 10 uM measured after 180 mins by radiometric scintillation analysis relative to control; format: cell-based
[15] = target: RAC-gamma serine/threonine-protein kinase (Homo sapiens, UniProt Q9Y243); assay: Inhibition of recombinant full length human His-tagged AKT3 expressed in baculovirus expression system using Ser/Thr-06 peptide as substrate incubated for 60 mins in presence of ATP by Z'-LYTE assay
[16] = target: Acetylcholinesterase (Homo sapiens) (UniProt P22303); assay: Inhibition of human recombinant acetylcholine esterase expressed in HEK293 cells at 10 uM using acetylcholine as substrate preincubated for 15 mins followed by substrate addition measured after 20 mins by spectrophotometric analysis relative to control
[17] = target: Serine/threonine-protein kinase MARK1 (Homo sapiens, UniProt Q9P0L2); assay: Inhibition of recombinant full length human GST-tagged MARK1 expressed in baculovirus expression system using serine/threonine-21 peptide as substrate incubated for 60 mins in presence of ATP by Z'-LYTE assay
[18] = target: Serine/threonine-protein kinase D3 (Homo sapiens, UniProt O94806); assay: Inhibition of recombinant full length human GST-tagged PKD3 expressed in baculovirus expression system using serine/threonine-17 peptide as substrate incubated for 60 mins in presence of ATP by Z'-LYTE assay
[19] = target: Prostaglandin F2-alpha receptor (Homo sapiens) (UniProt P43088); assay: Displacement of [3H]PGF2alpha from full length human recombinant prostanoid FP receptor expressed in HEK293 cells at 10 uM measured after 60 mins by radiometric scintillation analysis relative to control; format: cell-based
[20] = target: Phosphatidylinositol 4-kinase alpha (Homo sapiens, UniProt P42356); assay: Inhibition of recombinant full length human N-terminal GST-tagged PI4KA expressed in baculovirus expression system using PI lipid as substrate incubated for 60 mins in presence of ATP by Adapta assay
[21] = target: Insulin-like growth factor 1 receptor (Homo sapiens, UniProt P08069); assay: Inhibition of recombinant human His-tagged IGF1R expressed in baculovirus expression system using tyrosine 1 peptide as substrate incubated for 60 mins in presence of ATP by Z'-LYTE assay
[22] = target: Ribosomal protein S6 kinase alpha-3 (Homo sapiens, UniProt P51812); assay: Inhibition of recombinant full length human His-tagged RSK2 expressed in baculovirus expression system using serine/threonine-6 peptide as substrate incubated for 60 mins in presence of ATP by Z'-LYTE assay
[23] = target: Sodium-dependent dopamine transporter (Homo sapiens) (UniProt Q01959); assay: Displacement of [125I]RTI-55 from full length recombinant human dopamine transporter expressed in CHO-S cells at 10 uM after 3 hrs by radiometric scintillation analysis relative to control; format: cell-based
Sequence of Sodium-dependent dopamine transporter (Homo sapiens) (Q01959 whole entry): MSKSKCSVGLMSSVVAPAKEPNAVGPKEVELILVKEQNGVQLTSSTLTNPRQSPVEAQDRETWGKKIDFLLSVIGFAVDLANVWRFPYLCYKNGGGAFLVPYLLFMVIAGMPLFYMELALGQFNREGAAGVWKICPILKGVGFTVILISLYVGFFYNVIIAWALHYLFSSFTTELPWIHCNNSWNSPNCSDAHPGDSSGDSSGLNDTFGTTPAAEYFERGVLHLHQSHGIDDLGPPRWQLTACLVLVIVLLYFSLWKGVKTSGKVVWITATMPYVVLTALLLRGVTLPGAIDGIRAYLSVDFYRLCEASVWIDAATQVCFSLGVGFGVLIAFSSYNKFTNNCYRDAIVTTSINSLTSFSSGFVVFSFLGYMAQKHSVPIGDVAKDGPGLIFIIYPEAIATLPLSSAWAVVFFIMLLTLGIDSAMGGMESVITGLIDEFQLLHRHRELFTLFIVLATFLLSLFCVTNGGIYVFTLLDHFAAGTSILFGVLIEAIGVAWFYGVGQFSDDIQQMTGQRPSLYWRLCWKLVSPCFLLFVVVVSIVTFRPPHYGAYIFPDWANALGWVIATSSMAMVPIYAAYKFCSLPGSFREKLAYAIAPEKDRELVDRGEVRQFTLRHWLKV

Sequence of BDNF/NT-3 growth factors receptor (Q16620 whole entry, the tested form may be a part): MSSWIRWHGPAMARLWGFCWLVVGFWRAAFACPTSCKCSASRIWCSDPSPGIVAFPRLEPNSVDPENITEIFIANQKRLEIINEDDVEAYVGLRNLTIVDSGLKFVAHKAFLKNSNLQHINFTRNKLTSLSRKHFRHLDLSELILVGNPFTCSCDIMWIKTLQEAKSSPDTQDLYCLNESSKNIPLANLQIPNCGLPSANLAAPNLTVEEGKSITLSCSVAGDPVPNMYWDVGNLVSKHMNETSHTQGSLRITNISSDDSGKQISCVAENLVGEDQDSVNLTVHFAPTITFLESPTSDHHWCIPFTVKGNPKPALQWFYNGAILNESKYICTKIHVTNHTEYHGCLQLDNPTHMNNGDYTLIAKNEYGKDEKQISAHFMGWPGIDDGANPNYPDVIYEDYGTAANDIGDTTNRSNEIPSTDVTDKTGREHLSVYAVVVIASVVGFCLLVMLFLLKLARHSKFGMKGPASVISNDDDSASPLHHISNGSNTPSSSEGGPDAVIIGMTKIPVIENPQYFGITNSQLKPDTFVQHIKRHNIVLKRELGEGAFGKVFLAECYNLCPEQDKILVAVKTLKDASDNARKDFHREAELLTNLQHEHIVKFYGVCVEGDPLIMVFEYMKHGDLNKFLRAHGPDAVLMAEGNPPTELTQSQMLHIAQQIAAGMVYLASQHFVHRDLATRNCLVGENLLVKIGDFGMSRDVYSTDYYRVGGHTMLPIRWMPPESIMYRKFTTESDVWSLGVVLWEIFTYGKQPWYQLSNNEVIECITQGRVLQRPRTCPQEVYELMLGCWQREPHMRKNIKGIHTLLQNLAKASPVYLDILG
Sequence of Serine/threonine-protein kinase Sgk2 (Q9HBY8 whole entry, the tested form may be a part): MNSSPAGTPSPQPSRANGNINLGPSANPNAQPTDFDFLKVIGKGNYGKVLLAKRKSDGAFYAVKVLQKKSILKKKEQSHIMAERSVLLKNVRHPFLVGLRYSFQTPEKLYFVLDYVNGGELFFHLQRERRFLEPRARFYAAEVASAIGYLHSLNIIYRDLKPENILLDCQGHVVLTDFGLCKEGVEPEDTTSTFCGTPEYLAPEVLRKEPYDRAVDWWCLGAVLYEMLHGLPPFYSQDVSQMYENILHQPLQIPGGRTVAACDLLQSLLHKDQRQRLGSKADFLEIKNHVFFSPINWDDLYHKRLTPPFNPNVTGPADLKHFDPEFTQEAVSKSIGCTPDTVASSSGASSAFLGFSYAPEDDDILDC
Sequence of PAS domain-containing serine/threonine-protein kinase (Q96RG2 whole entry, the tested form may be a part): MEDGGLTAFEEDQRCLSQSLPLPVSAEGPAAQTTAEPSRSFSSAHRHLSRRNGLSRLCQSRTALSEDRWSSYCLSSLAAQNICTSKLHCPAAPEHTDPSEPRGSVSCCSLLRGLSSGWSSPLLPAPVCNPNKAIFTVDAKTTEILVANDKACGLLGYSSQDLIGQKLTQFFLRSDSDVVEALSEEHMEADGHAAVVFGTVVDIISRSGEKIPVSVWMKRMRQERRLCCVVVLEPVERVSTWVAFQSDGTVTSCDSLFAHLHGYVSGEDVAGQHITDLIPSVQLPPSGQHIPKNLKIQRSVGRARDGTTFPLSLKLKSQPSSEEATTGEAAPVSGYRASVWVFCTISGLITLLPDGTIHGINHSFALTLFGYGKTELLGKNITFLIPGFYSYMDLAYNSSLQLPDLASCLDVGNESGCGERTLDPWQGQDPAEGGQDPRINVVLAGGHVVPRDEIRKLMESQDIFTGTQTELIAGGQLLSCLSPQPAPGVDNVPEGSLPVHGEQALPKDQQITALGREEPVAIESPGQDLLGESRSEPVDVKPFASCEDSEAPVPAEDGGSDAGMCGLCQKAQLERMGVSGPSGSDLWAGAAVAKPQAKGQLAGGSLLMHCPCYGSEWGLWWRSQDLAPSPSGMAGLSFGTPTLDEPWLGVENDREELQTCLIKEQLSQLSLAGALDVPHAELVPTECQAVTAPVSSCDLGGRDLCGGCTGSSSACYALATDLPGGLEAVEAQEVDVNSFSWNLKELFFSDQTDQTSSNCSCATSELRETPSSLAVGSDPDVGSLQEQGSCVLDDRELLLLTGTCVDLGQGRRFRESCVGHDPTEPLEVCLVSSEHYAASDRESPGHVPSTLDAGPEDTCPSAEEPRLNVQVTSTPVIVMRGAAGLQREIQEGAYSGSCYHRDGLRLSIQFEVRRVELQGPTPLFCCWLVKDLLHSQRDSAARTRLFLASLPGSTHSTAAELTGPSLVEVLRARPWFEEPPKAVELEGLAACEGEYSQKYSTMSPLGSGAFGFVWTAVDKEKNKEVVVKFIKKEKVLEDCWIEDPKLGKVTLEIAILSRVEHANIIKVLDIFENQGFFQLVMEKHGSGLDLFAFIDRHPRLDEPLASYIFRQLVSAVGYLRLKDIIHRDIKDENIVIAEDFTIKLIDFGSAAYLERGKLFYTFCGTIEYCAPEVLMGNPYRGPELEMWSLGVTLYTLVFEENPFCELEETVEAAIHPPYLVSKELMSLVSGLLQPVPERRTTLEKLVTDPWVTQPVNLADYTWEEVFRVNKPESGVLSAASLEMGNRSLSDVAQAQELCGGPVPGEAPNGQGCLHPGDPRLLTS
Sequence of Prostaglandin F2-alpha receptor (Homo sapiens) (P43088 whole entry): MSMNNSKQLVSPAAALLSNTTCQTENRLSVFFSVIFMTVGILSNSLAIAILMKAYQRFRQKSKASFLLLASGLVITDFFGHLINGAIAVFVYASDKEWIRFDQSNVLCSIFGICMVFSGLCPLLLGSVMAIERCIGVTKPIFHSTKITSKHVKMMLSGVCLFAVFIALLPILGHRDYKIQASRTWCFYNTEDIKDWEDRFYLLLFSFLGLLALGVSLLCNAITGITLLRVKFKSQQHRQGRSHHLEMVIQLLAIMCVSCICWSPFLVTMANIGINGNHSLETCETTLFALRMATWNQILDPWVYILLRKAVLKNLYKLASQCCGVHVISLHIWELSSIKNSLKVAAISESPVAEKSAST
Sequence of Aurora kinase C (Q9UQB9 whole entry, the tested form may be a part): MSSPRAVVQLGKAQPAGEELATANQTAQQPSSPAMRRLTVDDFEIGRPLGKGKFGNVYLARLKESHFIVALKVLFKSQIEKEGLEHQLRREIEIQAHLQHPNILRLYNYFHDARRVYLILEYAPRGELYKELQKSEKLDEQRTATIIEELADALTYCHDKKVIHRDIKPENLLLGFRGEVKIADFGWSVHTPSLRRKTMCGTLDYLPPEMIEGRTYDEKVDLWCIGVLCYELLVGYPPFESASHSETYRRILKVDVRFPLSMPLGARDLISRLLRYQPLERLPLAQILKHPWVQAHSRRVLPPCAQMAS
Sequence of Acetylcholinesterase (Homo sapiens) (P22303 whole entry): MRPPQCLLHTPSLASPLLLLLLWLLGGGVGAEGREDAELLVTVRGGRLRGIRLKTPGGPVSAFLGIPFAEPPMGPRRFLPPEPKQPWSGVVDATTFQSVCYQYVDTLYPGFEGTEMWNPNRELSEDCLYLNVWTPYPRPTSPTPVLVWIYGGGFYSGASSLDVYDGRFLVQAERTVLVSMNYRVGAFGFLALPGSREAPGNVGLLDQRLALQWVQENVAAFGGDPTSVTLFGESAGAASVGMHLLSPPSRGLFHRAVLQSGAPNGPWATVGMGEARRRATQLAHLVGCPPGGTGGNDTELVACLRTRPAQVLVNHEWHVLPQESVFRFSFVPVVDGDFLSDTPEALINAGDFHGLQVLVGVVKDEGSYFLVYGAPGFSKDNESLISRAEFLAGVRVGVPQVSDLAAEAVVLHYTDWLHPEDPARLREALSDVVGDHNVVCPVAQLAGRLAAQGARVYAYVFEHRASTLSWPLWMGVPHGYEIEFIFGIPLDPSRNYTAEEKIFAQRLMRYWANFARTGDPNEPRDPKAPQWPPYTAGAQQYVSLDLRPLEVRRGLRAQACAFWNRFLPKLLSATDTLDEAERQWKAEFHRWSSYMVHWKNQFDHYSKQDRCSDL
Sequence of Calcium/calmodulin-dependent protein kinase type II subunit delta (Q13557 whole entry): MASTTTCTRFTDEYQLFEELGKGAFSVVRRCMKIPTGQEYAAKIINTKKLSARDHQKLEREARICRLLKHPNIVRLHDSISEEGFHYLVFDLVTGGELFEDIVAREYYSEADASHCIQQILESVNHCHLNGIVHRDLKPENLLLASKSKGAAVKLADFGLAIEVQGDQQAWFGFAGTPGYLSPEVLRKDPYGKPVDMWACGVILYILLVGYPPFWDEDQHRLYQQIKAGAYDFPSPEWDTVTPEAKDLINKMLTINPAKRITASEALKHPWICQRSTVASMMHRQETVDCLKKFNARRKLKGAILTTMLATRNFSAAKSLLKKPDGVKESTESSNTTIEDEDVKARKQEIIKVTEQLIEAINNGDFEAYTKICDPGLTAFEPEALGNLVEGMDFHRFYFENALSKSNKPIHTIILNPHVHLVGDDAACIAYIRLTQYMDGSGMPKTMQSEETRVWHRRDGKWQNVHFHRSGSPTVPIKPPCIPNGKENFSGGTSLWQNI

C[C@@H]1C[C@H]1C(=O)N1CCN(c2cnc(C#N)c(-c3cnn(C)c3)n2)C[C@H]1C
37%: inhibition [16]
> 100 µM: IC50 [1] | IC50 (Aurora kinase C) | IC50 [2] | IC50 [5] | IC50 [6] | IC50 [7] | IC50 [8] | IC50 [9] | IC50 [10] | IC50 [11] | IC50 [12] | IC50 [13] | IC50 [15] | IC50 [17] | IC50 [18] | IC50 [20] | IC50 [21]
29.1 µM: IC50 [22]
1%: inhibition [23]
17%: inhibition [4]
11%: inhibition [3]
9%: inhibition [19]
12%: inhibition [14]
